Measured values from patent US20220257552A1, “METHODS OF PRESCREENING AND TREATING BREAST CANCERS WITH SELECTIVE ANDROGEN RECEPTOR MODULATORS” (priority 2021, published 2022).

How the values were obtained:
[1] = tested on: HCC-38 triple negative breast cancer cells; assay: SRB cell viability, HCC-38 cells infected with AR adenovirus; assay type: cell-based; conditions: 3 days
Protocol: The SRB assay was used to determine cell number during cytotoxocity experiments. The following protocol was used: • 1. Cells were detached with 0.25% trypsin. • 2. Experimental cultures were cultured in 96-well microtiter plates (200 μL growth medium per well; 1,000-200,000 cells per well). • 3. Cultures were fixed with 50 μL 50% TCA (4° C.). (see cell fixation protocol for details). • 4. Fixed cells were stained with 50 μL 0.4% (wt/vol) SRB in 1% acetic acid for 10 minutes. • 5. SRB was removed and the cultures were quickly* rinsed 5 times with 1% acetic acid to remove unbound dye.** • 6. Cultures were air-dried overnight until there was no visible moisture. • 7. The cellular protein-bound SRB was dissolved with 200 μL unbuffered Tris base (10 mM, pH 10.5) for 30 minutes on a rocking platform shaker. • 8. Absorbance was read at 540 nm. * quickly performing rinsing process was to prevent desorption of protein-bound SRB ** completely removed residual wash solution by sharply flicking plates over sink.
The following protocol was used for fixing cells: • a. 50 μL of 50% TCA (4° C.) was gently layered on the top of growth medium in each well to make a final TCA concentration of 10%. • b. Cultures were incubated at 4° C. for 1 hour. • c. Cultures were washed 5 times with tap water to remove TCA, growth medium, low-molecular-weight metabolites, and serum protein. • d. […]

[2] = tested on: HCI-13 tumors; assay: Affymetrix microarray of HCI-13 PDX tumors; parameters: species or system mice; conditions: mouse, in vivo
Protocol: RNA from tumors was extracted and verified qualitatively and quantitatively. Total RNA (200 ng/sample; n=4/group) from each sample was amplified and labeled using the WT Plus Kit from Affymetrix and processed according to Affymetrix protocol. The arrays (Human ST2.0, Affymetrix, Santa Clara, Calif.) were washed and stained on Affymetrix Fluidics station 450 and scanned on an Affymetrix GCS 3000 scanner.
Data from microarrays were normalized using Affymetrix Expression Console. Mean, Standard Deviation, and Variance were calculated across the groups. Fold Change from vehicle-treated samples was calculated, and a fold change of 1.5 was used as cutoff Student's t-test was used to determine the significance and a cutoff of p value<0.05 was used for significance discovery. False discovery rate was calculated using Benjamini & Hochberg method, and a cutoff for FDR<0.05 was used to create a significant differential expression list. The gene candidate list was loaded to Ingenuity Pathway Analysis and gene set enrichment analysis (GSEA) performed for further discovery. Microarray experiments were performed at the UTHSC Molecular Resources Center (MRC), and data analysis was performed by the UTHSC Molecular Bioinformatics (mBio) core facility.

[3] = molecular target: T1, ER-β (Rattus norvegicus, UniProt Q62986); assay: ER-β transactivation in HEK-293 cells; assay type: cell-based
T1 construct: expressed in transfected cells
T1 sequence (Q62986 whole entry): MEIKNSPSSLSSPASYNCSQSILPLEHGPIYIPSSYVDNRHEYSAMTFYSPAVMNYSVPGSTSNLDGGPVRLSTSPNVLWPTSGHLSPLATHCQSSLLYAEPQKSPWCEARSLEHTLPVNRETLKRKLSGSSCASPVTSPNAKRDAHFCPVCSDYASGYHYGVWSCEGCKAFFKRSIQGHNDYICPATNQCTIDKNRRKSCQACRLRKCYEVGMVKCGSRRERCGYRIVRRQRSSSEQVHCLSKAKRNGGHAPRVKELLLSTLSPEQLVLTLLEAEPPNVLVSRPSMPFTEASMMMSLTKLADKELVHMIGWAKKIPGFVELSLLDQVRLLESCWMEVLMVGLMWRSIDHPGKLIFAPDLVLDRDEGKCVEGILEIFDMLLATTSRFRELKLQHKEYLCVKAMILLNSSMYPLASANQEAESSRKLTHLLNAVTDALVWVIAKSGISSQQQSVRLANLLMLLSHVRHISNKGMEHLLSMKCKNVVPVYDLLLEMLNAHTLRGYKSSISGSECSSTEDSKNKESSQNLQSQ
Protocol: (§1) Rat GR, MR, PR, ER-α and ER-β were individually cloned into a pCR3.1 vector backbone. Sequencing was performed to verify the absence of any mutations. HEK-293 cells were plated at 90,000 cells per well of a 24 well plate in Dulbecco's Minimal Essential Media supplemented with 5% charcoal-stripped FBS. […] Luciferase assays were performed 48 h after transfection. Transcriptional activation values are represented as firefly luciferase normalized to renilla luciferase.

[4] = molecular target: T2, MR (Rattus norvegicus, UniProt P22199); assay: MR transactivation in HEK-293 cells; assay type: cell-based
T2 construct: expressed in transfected cells
T2 sequence (P22199 1-981): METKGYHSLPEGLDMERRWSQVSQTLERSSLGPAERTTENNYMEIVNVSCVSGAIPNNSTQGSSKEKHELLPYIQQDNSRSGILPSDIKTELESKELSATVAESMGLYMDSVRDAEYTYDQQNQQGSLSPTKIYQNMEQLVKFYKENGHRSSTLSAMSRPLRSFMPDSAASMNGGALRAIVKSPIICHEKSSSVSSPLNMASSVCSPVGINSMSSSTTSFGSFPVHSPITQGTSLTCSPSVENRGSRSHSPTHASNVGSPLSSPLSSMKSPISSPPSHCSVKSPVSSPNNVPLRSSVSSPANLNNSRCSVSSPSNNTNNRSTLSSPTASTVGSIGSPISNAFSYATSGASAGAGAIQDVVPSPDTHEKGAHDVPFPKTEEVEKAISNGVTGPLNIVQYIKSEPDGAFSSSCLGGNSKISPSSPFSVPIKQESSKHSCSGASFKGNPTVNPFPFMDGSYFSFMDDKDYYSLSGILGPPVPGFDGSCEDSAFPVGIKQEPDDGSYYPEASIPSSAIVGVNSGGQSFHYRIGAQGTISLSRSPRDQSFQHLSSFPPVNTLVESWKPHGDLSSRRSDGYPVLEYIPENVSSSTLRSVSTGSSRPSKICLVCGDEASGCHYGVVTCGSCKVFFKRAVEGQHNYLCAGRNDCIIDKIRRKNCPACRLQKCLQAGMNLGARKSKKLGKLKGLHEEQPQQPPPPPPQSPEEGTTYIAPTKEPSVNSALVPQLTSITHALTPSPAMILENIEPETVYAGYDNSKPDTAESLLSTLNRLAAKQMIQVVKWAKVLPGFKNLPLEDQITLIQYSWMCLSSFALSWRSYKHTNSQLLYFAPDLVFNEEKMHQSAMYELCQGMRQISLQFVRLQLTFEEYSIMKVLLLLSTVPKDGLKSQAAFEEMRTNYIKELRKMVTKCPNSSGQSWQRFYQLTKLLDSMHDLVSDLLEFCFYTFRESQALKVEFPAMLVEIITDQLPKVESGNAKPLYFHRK
Protocol: as §1

[5] = tested on: MCF-7-AR tumors; assay: Affymetrix microarray of MCF-7-AR tumors; assay type: in vivo, mice; conditions: Table 9
Protocol: Microarray Analysis was performed on RNA from MDA-MB-231-AR and MCF-7-AR tumors in order to identify and compare changes in gene expression in ER-negative (MDA-MB-231-AR; triple negative) an ER-positive (MCF-7-AR; triple positive) breast cancer tumors treated with a compound of Formula VIII (30 mg/kg/day p.o. for 4 weeks). Affymetrix analysis of the xenografts was done on pooled samples of the xenografts. The analysis included ˜70,000 sequences with ˜30,000 genes and variations thereof represented, as well as microRNA's. RNA was isolated and expression of genes was evaluated using microarray (Affymetrix Human Gene ST 2.0 array). Expression of genes in compound of Formula VIII-treated samples was compared with the expression in vehicle-treated samples.

What does the source list for `C[C@](O)(COc1ccc(C#N)cc1)C(=O)Nc1ccc(C#N)c(C(F)(F)F)c1` [Formula IX, (S)—N-(4-Cyano-3-(trifluoromethyl)phenyl)-3-(4-cyanophenoxy)-2-hydroxy-2-methylpropanamide]?
cell growth [1]: inhibited; members of histone group inhibited [2]: About 17

What does the source list for `C[C@](O)(COc1ccc(C#N)cc1)C(=O)Nc1ccc(C#N)c(Cl)c1` [Formula VIII, (S)—N-(3-chloro-4-cyanophenyl)-3-(4-cyanophenoxy)-2-hydroxy-2-methylpropanamide]?
17β-estradiol-induced ER-β activity, antagonist mode ([3]; co-incubation): failed to alter; ERβ-mediated transactivation, agonist mode ([3]; highest tested concentration 1 μM): failed to activate; MR-mediated transactivation, agonist mode ([4]; all tested concentrations): did not induce; aldosterone-induced MR-mediated transactivation, antagonist mode ([4]; co-incubation): failed to alter; AHR expression [5]: Increased; CDT1 expression [5]: Decreased; Catalase expression [5]: Increased; EHMT1 expression [5]: Increased; ER-α expression [5]: Decreased; ERCC2 expression [5]: Decreased; FACGD2 expression [5]: Decreased; IRS1 expression [5]: Decreased; KLK3 expression [5]: Increased; MTR expression [5]: Decreased; NPAS2 expression [5]: Increased; PON2 expression [5]: Increased; PR expression [5]: Decreased; TIMP3 expression [5]: Increased; XRCC1 expression [5]: Decreased
